System: LG0703-F948-PDC complex spheroid viability
Assay: Anticancer human tumor LG0703-F948-PDC patient-derived lung adenocarcinoma cell line growth inhibition
Settings: for IC50: curve of first compound; for viability, T/C: stronger effect = lower value
In short: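 Complex spheroids of tumor cells with HUVEC and human MSCs, exposed to iadademstat combined with other agents. Each agent tested in half-log steps from near clinical Cmax (else 10 microM top), DMSO ≤0.25%.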

[1] = second compound 0.1 µM, first compound 0.0316 µM
[2] = second compound 0.1 µM, first compound 0.1 µM
[3] = second compound 0.1 µM, first compound 0.316 µM
[4] = second compound 0.1 µM, first compound 1 µM
[5] = second compound 0.1 µM, first compound 3.16 µM
[6] = second compound 0.1 µM, first compound 10 µM
[7] = second compound 0.316 µM, first compound 0.0316 µM
[8] = second compound 0.316 µM, first compound 0.1 µM
[9] = second compound 0.316 µM, first compound 0.316 µM
[10] = second compound 0.316 µM, first compound 1 µM
[11] = second compound 0.316 µM, first compound 3.16 µM
[12] = second compound 0.316 µM, first compound 10 µM
[13] = second compound 1 µM, first compound 0.0316 µM
[14] = second compound 1 µM, first compound 0.1 µM
[15] = second compound 1 µM, first compound 0.316 µM
[16] = second compound 1 µM, first compound 1 µM
[17] = second compound 1 µM, first compound 3.16 µM
[18] = second compound 1 µM, first compound 10 µM
[19] = second compound 3.16 µM, first compound 0.0316 µM
[20] = second compound 3.16 µM, first compound 0.1 µM
[21] = second compound 3.16 µM, first compound 0.316 µM
[22] = second compound 3.16 µM, first compound 1 µM
[23] = second compound 3.16 µM, first compound 3.16 µM
[24] = second compound 3.16 µM, first compound 10 µM
[25] = second compound 10 µM, first compound 0.0316 µM
[26] = second compound 10 µM, first compound 0.1 µM
[27] = second compound 10 µM, first compound 0.316 µM
[28] = second compound 10 µM, first compound 1 µM
[29] = second compound 10 µM, first compound 3.16 µM
[30] = second compound 10 µM, first compound 10 µM
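Also: spheroids exposed to agents for seven days before readout.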
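For viability, T/C in this document: 100% = DMSO vehicle control wells as normalization base.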

Structure (SMILES): COc1ccc([C@@H](O)c2cc(-c3ncnc4cc(N5CCOCC5)ccc34)c(F)cc2Cl)nn1 + NC1CCC(NC2CC2c2ccccc2)CC1
- IC50 (second compound 0.1 µM): 1160 nM
- IC50 (second compound 0.316 µM): 1170 nM
- IC50 (second compound 1 µM): 1230 nM
- IC50 (second compound 3.16 µM): 1170 nM
- IC50 (second compound 10 µM): 1030 nM
- viability, T/C [1]: 100%
- viability, T/C [2]: 97.4%
- viability, T/C [3]: 88.4%
- viability, T/C [4]: 54.5%
- viability, T/C [5]: 17.4%
- viability, T/C [6]: 3.58%
- viability, T/C [7]: 92.3%
- viability, T/C [8]: 110%
- viability, T/C [9]: 87.3%
- viability, T/C [10]: 54.8%
- viability, T/C [11]: 18.7%
- viability, T/C [12]: 4.54%
- viability, T/C [13]: 110%
- viability, T/C [14]: 97.4%
- viability, T/C [15]: 84%
- viability, T/C [16]: 61.8%
- viability, T/C [17]: 16.1%
- viability, T/C [18]: 3.83%
- viability, T/C [19]: 112%
- viability, T/C [20]: 95.3%
- viability, T/C [21]: 89.6%
- viability, T/C [22]: 56.5%
- viability, T/C [23]: 16.7%
- viability, T/C [24]: 3.27%
- viability, T/C [25]: 118%
- viability, T/C [26]: 107%
- viability, T/C [27]: 92.4%
- viability, T/C [28]: 52.2%
- viability, T/C [29]: 12.4%
- viability, T/C [30]: 3.19%

Structure (SMILES): NS(=O)(=O)OCC1CC(n2ccc3c(NC4CCc5ccccc54)ncnc32)CC1O (stereo not given) + NC1CC1c1ccc(-c2cccc(O)c2)cc1
- IC50 (second compound 0.1 µM): 683 nM
- IC50 (second compound 0.316 µM): 582 nM
- IC50 (second compound 1 µM): 559 nM
- IC50 (second compound 3.16 µM): 559 nM
- IC50 (second compound 10 µM): 302 nM
- viability, T/C (second compound 0.1 µM, first compound 0.00949 µM): 101%
- viability, T/C (second compound 0.1 µM, first compound 0.03 µM): 113%
- viability, T/C (second compound 0.1 µM, first compound 0.0949 µM): 104%
- viability, T/C (second compound 0.1 µM, first compound 0.3 µM): 75.2%
- viability, T/C (second compound 0.1 µM, first compound 0.949 µM): 40.9%
- viability, T/C (second compound 0.1 µM, first compound 3 µM): 19%
- viability, T/C (second compound 0.316 µM, first compound 0.00949 µM): 118%
- viability, T/C (second compound 0.316 µM, first compound 0.03 µM): 104%
- viability, T/C (second compound 0.316 µM, first compound 0.0949 µM): 105%
- viability, T/C (second compound 0.316 µM, first compound 0.3 µM): 73.9%
- viability, T/C (second compound 0.316 µM, first compound 0.949 µM): 31.9%
- viability, T/C (second compound 0.316 µM, first compound 3 µM): 21.6%
- viability, T/C (second compound 1 µM, first compound 0.00949 µM): 107%
- viability, T/C (second compound 1 µM, first compound 0.03 µM): 117%
- viability, T/C (second compound 1 µM, first compound 0.0949 µM): 103%
- viability, T/C (second compound 1 µM, first compound 0.3 µM): 68%
- viability, T/C (second compound 1 µM, first compound 0.949 µM): 35.6%
- viability, T/C (second compound 1 µM, first compound 3 µM): 18.6%
- viability, T/C (second compound 3.16 µM, first compound 0.00949 µM): 110%
- viability, T/C (second compound 3.16 µM, first compound 0.03 µM): 105%
- viability, T/C (second compound 3.16 µM, first compound 0.0949 µM): 98.4%
- viability, T/C (second compound 3.16 µM, first compound 0.3 µM): 70.4%
- viability, T/C (second compound 3.16 µM, first compound 0.949 µM): 32.6%
- viability, T/C (second compound 3.16 µM, first compound 3 µM): 16%
- viability, T/C (second compound 10 µM, first compound 0.00949 µM): 107%
- viability, T/C (second compound 10 µM, first compound 0.03 µM): 104%
- viability, T/C (second compound 10 µM, first compound 0.0949 µM): 81.2%
- viability, T/C (second compound 10 µM, first compound 0.3 µM): 50.8%
- viability, T/C (second compound 10 µM, first compound 0.949 µM): 23.8%
- viability, T/C (second compound 10 µM, first compound 3 µM): 12.6%

Structure (SMILES): O=C(c1cc(Cc2n[nH]c(=O)c3ccccc23)ccc1F)N1CCN(C(=O)C2CC2)CC1 + NC1CCC(NC2CC2c2ccccc2)CC1
- IC50 (second compound 0.1 µM): > 10000 nM
- IC50 (second compound 0.316 µM): > 10000 nM
- IC50 (second compound 1 µM): > 10000 nM
- IC50 (second compound 3.16 µM): > 10000 nM
- IC50 (second compound 10 µM): > 10000 nM
- viability, T/C [1]: 101%
- viability, T/C [2]: 100%
- viability, T/C [3]: 91.5%
- viability, T/C [4]: 99.4%
- viability, T/C [5]: 80.9%
- viability, T/C [6]: 76.8%
- viability, T/C [7]: 112%
- viability, T/C [8]: 117%
- viability, T/C [9]: 106%
- viability, T/C [10]: 89.4%
- viability, T/C [11]: 94.3%
- viability, T/C [12]: 84%
- viability, T/C [13]: 121%
- viability, T/C [14]: 125%
- viability, T/C [15]: 123%
- viability, T/C [16]: 130%
- viability, T/C [17]: 95.3%
- viability, T/C [18]: 98.2%
- viability, T/C [19]: 116%
- viability, T/C [20]: 110%
- viability, T/C [21]: 113%
- viability, T/C [22]: 107%
- viability, T/C [23]: 112%
- viability, T/C [24]: 106%
- viability, T/C [25]: 109%
- viability, T/C [26]: 106%
- viability, T/C [27]: 103%
- viability, T/C [28]: 109%
- viability, T/C [29]: 94%
- viability, T/C [30]: 84%

Structure (SMILES): CC(C)c1c(-c2ccccc2)nc2c(C#N)c[nH]n2c1=O + NC1CC1c1ccc(-c2cccc(O)c2)cc1
- IC50 (second compound 0.1 µM): > 10000 nM
- IC50 (second compound 0.316 µM): > 10000 nM
- IC50 (second compound 1 µM): > 10000 nM
- IC50 (second compound 3.16 µM): > 10000 nM
- IC50 (second compound 10 µM): > 10000 nM
- viability, T/C [1]: 107%
- viability, T/C [2]: 102%
- viability, T/C [3]: 115%
- viability, T/C [4]: 94.3%
- viability, T/C [5]: 110%
- viability, T/C [6]: 82.7%
- viability, T/C [7]: 97.5%
- viability, T/C [8]: 106%
- viability, T/C [9]: 117%
- viability, T/C [10]: 108%
- viability, T/C [11]: 104%
- viability, T/C [12]: 91.8%
- viability, T/C [13]: 102%
- viability, T/C [14]: 109%
- viability, T/C [15]: 109%
- viability, T/C [16]: 109%
- viability, T/C [17]: 90.6%
- viability, T/C [18]: 69.7%
- viability, T/C [19]: 97.7%
- viability, T/C [20]: 93.4%
- viability, T/C [21]: 92.5%
- viability, T/C [22]: 99.8%
- viability, T/C [23]: 80.3%
- viability, T/C [24]: 82.3%
- viability, T/C [25]: 97.9%
- viability, T/C [26]: 97.6%
- viability, T/C [27]: 94.9%
- viability, T/C [28]: 85.3%
- viability, T/C [29]: 88.8%
- viability, T/C [30]: 74.2%

From PubChem BioAssay AID1918952 (Molecular Pharmacology Branch, DTP, NCI, 2023)
